Among the data in a melting point compilation (Tetko et al.; mined from patent text by program, amines drawn as free bases though some values may be those of a salt) are melting point values, retold here.

Structures are written as SMILES.

As usually defined, the melting point is the temperature of the solid-liquid transition. As for `O=C1CCC(Nc2ncnc3c2ncn3C2OC(CO)C(O)C2O)N1` (centres undefined), the melting point lay within 198 to 200 °C.
With `COc1ccc2ncc(C(N)=O)cc2c1` the figure was 93.7 to 95.7 °C; with `Cc1nnc(-c2ccc3ccn(-c4ccc(S(C)=O)cc4)c3c2)o1` (centres undefined), 215 to 216 °C; with `CC1(C)OC(=S)Nc2c(Br)cc(-c3cc(F)cc(C#N)c3)cc21`, 219 to 220 °C.
Next, `O=S(=O)(NCCCCOc1ccc(-c2ccncn2)cc1)c1ccc(Br)cc1`: 131 to 133 °C; `O=[N+]([O-])c1cc2oc(-c3ccccc3)nc2cc1N1CCOCC1`: 134 to 135 °C.
Take `CC1C(C#N)=C(N)OC2=C1C(=O)CC(c1cccc3ccccc13)C2` (centres undefined): the melting point lay within 204 to 206 °C.
Next, `O=C(C(=Cc1ccc(Cl)cc1)c1ccc(Cl)cc1)c1ccc(O)cc1`: 132 to 136 °C; `CS(=O)(=O)c1ccc(-c2cnn(-c3ccc(Cl)cc3)c(=O)c2-c2ccc(F)cc2)cc1`: 214 to 216 °C; `c1ccc(Cc2cccc3c2[nH]c2ccccc23)cc1`: 117 °C.
With `C[C@@H]1O[C@](/C=C/C2CC2)(C(F)(F)F)c2c(ccc3c2OCO3)NC1=O` (relative stereo) the figure was 236 to 237 °C.
Consider `CCN1c2cscc2CN(C)c2ccccc21`, for which the melting point lay in the range of 135 to 137 °C.
With `CCc1ccc(NC(=O)OCc2ccccc2)nc1` the figure was 125 to 127 °C; with `Oc1ccc(-c2nc(-c3ccccc3)[nH]c2-c2ccc(O)cc2)cc1`, 327 to 330 °C.
With `COC(=O)c1ccc(C(=O)c2ccc(CCl)cc2)cc1` the figure was 122 to 125 °C; with `C=C(CCC)C(=O)c1ccc(OC2(C(=O)O)CCC2)c(Cl)c1Cl`, 105 to 106 °C.
`CS(=O)(=O)OCCCC(c1ccccc1)c1ccccc1` returned a melting point of 85 to 88 °C.
With `CCOc1cc(C(Cl)(Cl)Cl)cc(OC)n1` the figure was 36 to 38 °C.
With `CC(C)C1(C)N=C(c2nc3occ([N+](=O)[O-])c3cc2C(=O)O)NC1=O` (centres undefined) the figure was 220 to 237 °C; with `CN1CCC(=O)C(C(c2ccc(F)cc2)c2ccc(F)cc2)C1` (centres undefined), 127 to 129 °C.
With `CN1C(=O)CCc2cccc(N3CCN(CCCCOc4ccc5c(n4)NC(=O)CCC5)CC3)c21` the figure was 184 to 185 °C; with `O=C(Cc1ccc(Br)cc1)c1ccc(Cl)cc1Cl`, 69 to 70 °C; with `COc1ccc(OC)c(S(=O)(=O)n2c(COC(C)C(=O)O)cc3cc(Cl)ccc32)c1` (centres undefined), 196 to 198 °C.
Consider `O=c1c2c(nc3ccc(Br)cn13)C(=Cc1ccc(Cl)cc1Cl)CC2`, for which the melting point was 164 to 166 °C.
With `N#CC(C(=O)Cl)=C(c1ccccc1)c1ccccc1` the figure was 157 to 158 °C; with `O=C(CC(=O)c1ccccc1Cl)Nc1ccccc1`, 142 °C.
Next, `CCN1CCc2ccc(Nc3ncc(Cl)c(NC4CCCCNC4=O)n3)cc2CC1` (centres undefined): 232 to 234 °C; `CCn1c(=O)c2[nH]c(/C=C/c3ccc(-c4ccccc4)cc3)nc2n(CC)c1=O`: more than 270 °C; `NC(=O)c1cc(F)c(-n2ncc(Cl)c(Cl)c2=O)cc1F`: more than 260 °C.
With `CCOC(=O)c1ccccc1OCNC(=O)CCCCCNC(=O)OC(C)(C)C` the figure was 120 to 121 °C; with `O=C(O)c1ccc(OCCCNc2ccc(NCc3ccc4c(c3)OCCO4)cc2)cc1`, 246 to 247 °C; with `COc1ccc(Br)c(COc2cccc3cc(OC)ccc23)c1`, 83 to 84 °C.
`CC(C)(F)Cn1c(CCO)nc2c(N)nc3cccnc3c21`: the melting point fell in the range of 224 to 225 °C.
Next, `COC(=O)C1Cc2c([nH]c3ccccc23)C(c2ccccc2Br)N1` (centres undefined): 105 to 106 °C; `CS(=O)(=O)c1ccc(-c2cnn(-c3ccc(F)c(F)c3)c(=O)c2CCC=C2CC2)cc1`: 128 to 129 °C; `N#CCCNC(=O)c1cccc(-c2ccc3c(c2)N(c2cccc(Cl)c2Cl)CC3)c1`: 155 to 156 °C.
Next, `CCCc1c(OCCCc2ccc3cc(OC)c(OC)cc3c2)ccc(C(=O)OCc2ccccc2)c1O`: 94 to 96 °C.
With `O=C(CN1CC=CCC1)NC(=O)N1CCN2C(=O)OC(c3ccccc3)(c3ccccc3)C2C1` (centres undefined) the figure was 156 to 157 °C; with `Cc1cc(C#N)cc(C(=O)Nc2nc(C)cs2)n1`, 211 °C.
`Cc1ccc(Cc2cnc(CCCOc3cc(CN4CCCCC4)ccn3)[nH]c2=O)cn1` came in with a melting point of 99 to 100 °C.
With `CN1CC(CN2CC(=O)NC2=O)=CC2c3cccc4[nH]cc(c34)CC21` (centres undefined) the figure was 204 to 206 °C.
Next, `CCCCc1cc2c(Nc3ccc4[nH]ccc4c3)c(C#N)cnc2s1`: 210 °C; `Cc1noc(C)c1C(=O)Nc1ccc(-n2nc(C(F)(F)F)cc2C(F)(F)F)c(Cl)c1`: 64 to 65 °C.
Next, `Cc1c(CC(=O)O)c(=O)oc2cc(C3OC(CO)C(O)C(O)C3O)ccc12` (centres undefined): 186 to 188 °C; `COC(=O)c1ccc(OCCNC(=O)C2Cc3ccccc3N2S(=O)(=O)c2ccc(-c3ccc(F)cc3)cc2)cc1` (centres undefined): 70 to 72 °C.
For the compound `Cc1cc(Nc2ccnc(Nc3ccc(S(=O)(=O)N(CC4CCCO4)C4CCN(C)CC4)cc3)n2)ccc1F` (centres undefined), the melting point came out at 189 °C.
Next, `O=C1C=C(c2ccc(Cl)c(Cl)c2)C(=O)N1Nc1ccccc1`: 208 to 210 °C; `O=C1CCC(O)(c2nc3ccccc3s2)CC1`: 134 °C.
Next, `CN1CCC(C(=O)N2CCC(c3[nH]nc4c3C(=O)c3c(NC(=O)NN5CCOCC5)cccc3-4)CC2)CC1`: 148 to 150 °C.
Compound `Brc1ccc(-c2nc3n(c2-c2ccc(Br)cc2)CCS3)cc1` returned a melting point of 208 to 210 °C.
With `O=C(N1CCN(c2ccccc2)CC1)N1CCc2ccccc2CO1` the figure was 123 to 125 °C.
Next, `Cc1nn(-c2cc(O)c(Cl)cc2F)c(=O)n1C(F)F`: 147 to 152 °C.
Next, `O=S1(=O)NCN(C2CC2)c2ccc(Cl)cc21`: 159 to 161 °C.
On to `COC(=O)N[C@H]1CC[C@H](CCN2CCN(c3cccc(Cl)c3Cl)CC2)CC1`, for which the melting point is 143 to 147 °C.
With `CC1(C)Oc2ccc(C#N)cc2[C@@H](N2CC(OCc3ccccc3)=CC2=O)[C@@H]1O` (relative stereo) the figure was 248 °C; with `COC(=O)CCCc1ccc(C(=O)C=Cc2ccccc2)cc1`, 43 to 44 °C.
Next, `CC(C)Nc1cccnc1N1CCN(C(=O)c2ccc(C(=O)NCCc3cccs3)cn2)CC1`: 131 to 134 °C.
For the compound `O=[N+]([O-])c1cccc(P(=O)(O)O)c1`, the melting point lay in the range of 148 to 155 °C.
`CCOC(=O)C(=Cc1ccc(O)cc1)C(=O)CCl` came in with a melting point of 92 to 95 °C.
With `COc1cc(-n2c(C#N)c3n(c2=O)CCCC3)c(F)cc1Cl` the figure was 173 to 175 °C.
Compound `C=CCNC1=NS(=O)(=O)c2sc(Cl)cc2N1` yielded a melting point of 217 to 221 °C.
With `CCOC(=O)c1cc2cccc(N(C)S(=O)(=O)c3cccs3)c2n1COC` the figure was 143 to 145 °C; with `CNC(=S)Nc1ccccc1-c1ccccc1`, 152 to 153 °C; with `Cc1cc(C(=O)O)sn1`, 203 to 204 °C.
Next, `COC(=O)c1ccc(Br)cc1COc1ccccc1`: 69.5 to 70.5 °C; `CN1Cc2ccc(COc3cccc4c3CN(C3CCC(=O)NC3=O)C4=O)cc2C1` (centres undefined): 262 to 264 °C; `C=CCN1CCN(C2=NC3(C=CC(=O)C=C3)C(c3ccccc3)=C2)CC1`: 171 °C.
Compound `O=c1[nH]cc(C(c2ccccc2)c2ccccc2)cc1C(c1ccccc1)c1ccccc1` came in with a melting point of 240 °C.
Next, `Nc1sc2c(c1C(=O)c1ccc(Br)s1)CCC2`: 154 to 156 °C; `Cc1cnc(N)c(S(N)(=O)=O)c1`: 187 to 189 °C; `CC(=O)N(c1ccccc1)c1ccccc1-c1ccc(I)cc1`: 135 to 136 °C.
`COC(=O)c1cccc([N+](=O)[O-])c1C` showed a melting point of 64.2 to 65.5 °C.
Next, `CC(CCc1ccccc1)NC1CCC(c2ccc(O)cc2)CC1` (racemic): 44 to 49 °C; `CN(C)C(=O)c1nc(-c2cnccn2)nc2c1c1ccc(Cl)cc1n2C`: 272 to 273 °C; `CCCOc1ccc(-n2c(C(F)(F)F)nn(C)c2=S)cc1`: 68 to 70 °C.
Next, `CS(=O)(=O)N(Cc1ccc(F)cc1)c1cccnc1`: 93 to 95 °C; `CC(C)Oc1ccc(-c2nn(C(C)c3oc4ccccc4c(=O)c3-c3cccc(F)c3)c3ncnc(N)c23)cc1` (centres undefined): 224 to 226 °C; `CCCC(=O)NC1Cc2ccc(-c3ccc(=O)[nH]n3)cc2C1` (centres undefined): 228 to 229 °C.
With `Cn1cc(-c2cc3cccnc3[nH]2)c2cc(C(N)=O)ccc21` the figure was 330 to 332 °C; with `O=C(OCCS(=O)(=O)CCCOCCc1ccccc1)c1ccccc1`, 65.5 °C; with `O=C(NCCCCCn1cncn1)c1ccc(Br)cc1`, 93 to 95 °C.
Turning to `CCc1cccc2c3c([nH]c12)C(CC)(CC(=O)OC)OCC3=NO` (centres undefined), the melting point fell in the range of 188 to 190 °C.
With `C#CCN(c1ccc(C(=O)NC(CCc2nnn[nH]2)C(=O)O)nc1)C1CCc2cc3nc(C)[nH]c(=O)c3cc21` (mixture of isomers) the figure was 189 to 191 °C; with `Cc1c(NC(=O)c2ccc(-c3ccc(F)cc3F)cc2)ccc2cc(CN3CCCC3)cnc12`, 177 to 179 °C.
Next, `CCC1(Cl)Cc2cc(OCC(=O)O)c(Cl)c(Cl)c2C1=O` (centres undefined): 185 to 187 °C; `O=C(O)C1CCC(c2ccccc2)n2c(=O)n(CCS)c(=O)n21` (centres undefined): 172 to 175 °C.
In turn, `O=S(=O)(Nc1cccc2cc(-c3ncns3)[nH]c12)c1cccs1` gave a melting point of 232 to 233 °C.
With `COc1ccc(NC(=O)C(C)(C)c2ccc(S(=O)(=O)/C=C/C#N)cc2)cc1` the figure was 123 to 126 °C; with `O=C(COc1ccc(Cc2ccc(Cl)cc2)cc1)OCc1cccnc1`, 77 to 78 °C.
